# From patent publication US20080139546A1, “Tetrahydroquinoline, indoline, and related aniline derivatives of heterocycle-fused benzodioxan methylamines” (Wyeth, priority 2006, published 2008)
# Legend:
# serotonin transporter = target: T1, serotonin transporter (Rattus norvegicus, UniProt P31652); assay: 3H-paroxetine binding to rat frontal cortical membranes, affinity for the serotonin transporter; details: 3H-paroxetine 0.1 nM, male Sprague Dawley rat frontal cortical membranes; read-out: 5HT Uptake r5HT-T Ki (nM) (Example 18)
# T1 construct: frontal cortical membranes prepared from male Sprague Dawley rats; from tissue; host or cells: rat frontal cortex membranes (male Sprague Dawley)
# T1 sequence (P31652 whole entry): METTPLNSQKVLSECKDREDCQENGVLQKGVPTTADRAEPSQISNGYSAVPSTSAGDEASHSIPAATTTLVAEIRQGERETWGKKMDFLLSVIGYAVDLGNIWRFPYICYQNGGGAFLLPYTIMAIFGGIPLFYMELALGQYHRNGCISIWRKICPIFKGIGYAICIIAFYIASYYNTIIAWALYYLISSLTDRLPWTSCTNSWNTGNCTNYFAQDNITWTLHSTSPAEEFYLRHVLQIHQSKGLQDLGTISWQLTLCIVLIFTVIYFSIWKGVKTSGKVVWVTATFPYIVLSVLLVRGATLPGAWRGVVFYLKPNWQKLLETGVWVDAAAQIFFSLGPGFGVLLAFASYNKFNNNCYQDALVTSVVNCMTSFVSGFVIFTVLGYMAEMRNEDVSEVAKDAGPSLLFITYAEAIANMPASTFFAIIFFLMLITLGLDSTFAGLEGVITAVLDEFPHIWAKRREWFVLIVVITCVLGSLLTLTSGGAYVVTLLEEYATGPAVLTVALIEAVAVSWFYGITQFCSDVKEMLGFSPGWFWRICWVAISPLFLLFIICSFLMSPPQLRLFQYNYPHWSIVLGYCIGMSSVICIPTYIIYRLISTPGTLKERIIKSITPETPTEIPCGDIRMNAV
# Method: A protocol similar to that used by Cheetham et al. (Neuropharmacol. 32:737-743, 1993) was used to determine the affinity of compounds for the serotonin transporter (i.e., by determining the relative ability of a compound to displace ^3H-paroxetine from male rat frontal cortical membranes). Briefly, frontal cortical membranes prepared from male Sprague Dawley rats were incubated with ^3H-paroxetine (0.1 nM) for 60 minutes at 25° C. All tubes also contained either vehicle, test compound (one to eight concentrations), or a saturating concentration of fluoxetine (10 μM) to define […]. All reactions were terminated by the addition of ice cold Tris buffer followed by rapid filtration using a Tom Tech filtration device to separate bound from free ^3H-paroxetine. Bound radioactivity was quantitated using a Wallac 1205 Beta Plate® counter. Nonlinear regression analysis was used to determine IC50 values which were converted to Ki values using the method of Cheng and Prusoff (Biochem. Pharmacol. 22: 3099-3108, 1973); […].
# This affinity translates to the blockade of 5-HT uptake, i.e., the ability of a compound increase synaptic 5-HT levels and to act like an SSRI.
# Human 5-HT1A Receptor [1] = target: T2, Human 5-HT1A Receptor (Homo sapiens, UniProt P08908); assay: cAMP radioimmunoassay (RIA) in human 5-HT1A receptor cell line, inhibition of forskolin stimulated cAMP; format: cell-based; details: forskolin (1 μM) stimulated cAMP, stably transfected CHO cells; read-out: h5HT1A cAMP EC50 (nM) (Example 19)
# T2 construct: expressed in transfected cells; host or cells: CHO cells (Chinese hamster ovary), stably transfected
# T2 sequence (P08908 1-422): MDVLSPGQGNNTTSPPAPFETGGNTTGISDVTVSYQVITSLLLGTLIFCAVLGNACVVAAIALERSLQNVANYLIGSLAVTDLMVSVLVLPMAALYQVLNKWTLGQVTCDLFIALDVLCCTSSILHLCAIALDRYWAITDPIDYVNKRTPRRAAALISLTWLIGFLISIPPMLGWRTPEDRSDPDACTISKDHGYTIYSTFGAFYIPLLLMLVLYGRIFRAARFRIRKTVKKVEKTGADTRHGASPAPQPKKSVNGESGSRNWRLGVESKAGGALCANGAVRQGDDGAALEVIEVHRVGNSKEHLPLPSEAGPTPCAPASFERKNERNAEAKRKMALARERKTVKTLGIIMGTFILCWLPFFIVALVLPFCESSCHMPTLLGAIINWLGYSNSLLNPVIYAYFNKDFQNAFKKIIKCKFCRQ
# Method: Certain effects of 5-HT (e.g., certain effects mediated by the interaction of 5-HT with the 5-HT1A receptor) are mediated by cAMP. To test the ability of compounds described herein to modulate cAMP, a radioimmunoassay (RIA) method was used. Briefly, stably transfected CHO cells were grown in DMEM containing 10% heat inactivated FBS and non-essential amino acids. The cells were plated at a density of 10^6 cells per well in a 96-well plate and incubated for 2 days in a CO2 incubator. On the second day, the medium was replaced with 0.1 ml Krebs and incubated 15 minutes at 37° C. The medium was then replaced with Krebs buffer containing 500 μM isobutylmethylxanthine (IBMX) and incubated for approximately 5 minutes at 37° C. Wells were treated with forskolin (1 μM final concentration) followed immediately by test compound (0.1 and 1 μM for the initial screen) and incubated for an additional 10 minutes at 37° C. The reaction was terminated by removal of the medium and the addition of 0.5 ml ice cold assay buffer (supplied in the RIA kit). Plates were stored at −20° C. prior to assessment of cAMP formation by RIA. The cAMP kit was obtained from Amersham (Piscataway, N.J.) and the RIA was performed as per the kit instructions. In the initial screen, percent inhibition of forskolin stimulated cAMP was measured. […] These compounds behaved as either full agonists or partial agonists. 5-HT, BMY 7378, buspirone, and 8-OH-DPAT were used as reference compounds.
# All compounds tested inhibited the forskolin-stimulated increase in […].
# Human 5-HT1A Receptor [2] = target: T2, Human 5-HT1A Receptor; assay: 8-OH-DPAT binding, human 5-HT1A receptor cell line (displacement of [3H]-OHDPAT, stably transfected CHO cells); details: [3H]-OHDPAT 1.5 nM, read-out: h5HT1A Affinity Ki (nM) (Example 17)
# Method: Affinity for the serotonin 5-HT1A receptor was established by testing each compound's ability to displace [^3H]-OHDPAT (dipropylaminotetralin) from the 5-HT1A serotonin receptor following a modification of the procedure of Hall et al., J. Neurochem. 44:1685-1696 (1985). Stably transfected Chinese hamster ovary (CHO) cells were plated and grown in Dulbecco's Modified Eagle's Medium (DMEM) containing 10% heat inactivated fetal bovine serum (FBS) and non-essential amino acids. Cells were scraped off the plate, transferred to centrifuge tubes, and washed twice by centrifugation (2000 rpm for 10 minutes at 4° C.) in buffer (50 mM Tris, pH 7.5). The resulting pellets were aliquoted and stored at −80° C. On the day of assay, the cells were thawed on ice, and re-suspended in buffer. The binding assay was performed in a 96-well microtiter plate in a total volume of about 250 μL. Non-specific binding was determined in the presence of 10 μM 5-HT; the final radio ligand concentration was 1.5 nM. Following a 30 minute incubation at room temperature, the reaction was terminated by the addition of ice cold buffer and rapid filtration through a GF/B filter presoaked for 30 minutes in 0.5% polyethyleneimine (PEI). Compounds were initially tested in a single point assay to determine percent inhibition at 1 μM, 0.1 μM, and 0.01 μM. Subsequently, Ki values were determined for compounds defined to be active. Percent inhibition Ki was determined by RFComp (Lundon Software, Chagrin Falls, Ohio), with serotonin and 8-OH-DPAT as the reference compounds.
# High affinity for the receptor is evidence of a compound's ability to directly modulate activity at the 5-HT1A receptor.
# Human 5-HT Transporter = target: T3, Human 5-HT Transporter (Homo sapiens, UniProt P31645); assay: Inhibition of 3H-5-HT uptake by Jar cells possessing the human 5-HT transporter; format: cell-based; details: Jar cells treated with staurosporine, read-out: 5HT Uptake h5HT-T IC50 (nM) (Example 20)
# T3 construct: endogenous in cells; host or cells: Jar cells (human carcinoma cell line), treated with staurosporine
# T3 sequence (P31645 whole entry): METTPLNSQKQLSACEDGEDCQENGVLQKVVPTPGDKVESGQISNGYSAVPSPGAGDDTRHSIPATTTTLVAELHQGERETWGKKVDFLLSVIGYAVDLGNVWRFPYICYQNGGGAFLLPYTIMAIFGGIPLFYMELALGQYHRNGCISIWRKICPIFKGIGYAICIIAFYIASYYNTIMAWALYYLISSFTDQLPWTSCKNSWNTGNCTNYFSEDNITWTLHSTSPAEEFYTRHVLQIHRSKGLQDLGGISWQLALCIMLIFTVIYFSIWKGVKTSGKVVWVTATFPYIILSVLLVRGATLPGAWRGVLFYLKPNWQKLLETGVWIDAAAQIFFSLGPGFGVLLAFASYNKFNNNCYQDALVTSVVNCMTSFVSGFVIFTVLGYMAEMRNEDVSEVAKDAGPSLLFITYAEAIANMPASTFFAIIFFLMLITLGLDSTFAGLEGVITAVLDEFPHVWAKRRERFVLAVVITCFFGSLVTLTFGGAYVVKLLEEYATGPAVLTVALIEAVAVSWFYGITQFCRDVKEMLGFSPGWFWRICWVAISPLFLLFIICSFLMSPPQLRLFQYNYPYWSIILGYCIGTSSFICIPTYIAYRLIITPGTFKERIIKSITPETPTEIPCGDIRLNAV
# Method: [Staurosporine greatly increases the expression of the 5-HT-Transporter.] On the day of assay, vehicle, excess of fluoxetine, or test compound was added to various wells on the plate. ^3H-5-HT was then aliquoted into all wells and the samples were incubated at 37° C. for 5 minutes. The wells were then washed with ice cold 50 mM Tris HCl (pH 7.4) buffer and aspirated to remove free ^3H-5-HT. 25 μL 0.25 M NaOH was then added to each well to lyse the cells and 75 μL scintillation cocktail (Microscint™ 20) was added prior to quantitation on a Packard TopCount® machine. Tubes with vehicle represent total possible uptake, radioactivity counted in tubes with excess fluoxetine represent nonspecific binding/uptake and were subtracted from the total possible uptake to give total possible specific uptake. This nonspecific binding (usual low in number) was then subtracted from the counts obtained in wells with various test compounds (or different concentrations of a test compound) resulting in uptake in the presence of drug. Specific uptake was then expressed as a percent of control values and was analyzed using nonlinear regression analysis (Prizm) to determine IC50 values. If the compound was active in inhibiting 5-HT uptake, its counts will be close to that obtained with fluoxetine.
# This blockade, in vivo, would be expected to result in an increase in extracellular 5-HT concentrations.
Structure (SMILES),Ki (serotonin transporter) [nM],EC50 (Human 5-HT1A Receptor [1]) [nM],Ki (Human 5-HT1A Receptor [2]) [nM],IC50 (Human 5-HT Transporter) [nM]
"Cc1ccc2c3c(ccc2n1)OC[C@H](CNCCCN1CCc2ccc(F)cc21)O3 [Example 3, 3-(6-fluoro-2,3-dihydro-1H-indol-1-yl)-N-{[(2S)-8-methyl-2,3-dihydro[1,4]dioxino[2,3-f]quinolin-2-yl]methyl}propan-1-amine]",2.8,1.88,0.35,107
"Cc1ccc2c3c(ccc2n1)OC[C@H](CNCCCN1CCCc2cc(F)c(F)cc21)O3 [Example 7, 3-(6,7-difluoro-3,4-dihydroquinolin-1(2H)-yl)-N-{[(2S)-8-methyl-2,3-dihydro[1,4]dioxino[2,3-f]quinolin-2-yl]methyl}propan-1-amine]",12.3,1.63,3.73,77
"Cc1ccc2c3c(ccc2n1)OC[C@H](CNCCCN1CCc2cc(F)ccc21)O3 [Example 2, 3-(5-fluoro-2,3-dihydro-1H-indol-1-yl)-N-{[(2S)-8-methyl-2,3-dihydro[1,4]dioxino[2,3-f]quinolin-2-yl]methyl}propan-1-amine]",10.2,3.76,0.6,
"Cc1ccc2c3c(ccc2n1)OC[C@H](CNCCCN1CCCc2ccc(F)cc21)O3 [Example 4, 3-(7-fluoro-3,4-dihydroquinolin-1(2H)-yl)-N-{[(2S)-8-methyl-2,3-dihydro[1,4]dioxino[2,3-f]quinolin-2-yl]methyl}propan-1-amine]",7.7,1.57,0.27,32.9
"Cc1ccc2c3c(ccc2n1)OC[C@H](CNCCCN1CCOc2ccccc21)O3 [Example 6, 3-(2,3-dihydro-4H-1,4-benzoxazin-4-yl)-N-{[(2S)-8-methyl-2,3-dihydro[1,4]dioxino[2,3-f]quinolin-2-yl]methyl}propan-1-amine]",40.8,0.77,2.58,
"Cc1ccc2c3c(ccc2n1)OC[C@H](CNCCCN1CCCc2ccccc21)O3 [Example 1, 3-(3,4-dihydroquinolin-1(2H)-yl)-N-{[(2S)-8-methyl-2,3-dihydro[1,4]dioxino[2,3-f]quinolin-2-yl]methyl}propan-1-amine]",13,1.58,2.45,150
"Cc1ccc2c3c(ccc2n1)OC[C@H](CNCCCN1CCc2ccccc21)O3 [Example 5, 3-(2,3-dihydro-1H-indol-1-yl)-N-{[(2S)-8-methyl-2,3-dihydro[1,4]dioxino[2,3-f]quinolin-2-yl]methyl}propan-1-amine]",21.1,3.44,0.62,180

# Results, then the molecule that gave them:
Ki (serotonin transporter) [nM],EC50 (Human 5-HT1A Receptor [1]) [nM],Ki (Human 5-HT1A Receptor [2]) [nM],IC50 (Human 5-HT Transporter) [nM],Structure (SMILES)
11.8,9.25,0.66,438,"Cc1ccc2c3c(ccc2n1)OC[C@H](CNCCCCN1CCCc2ccccc21)O3 [Example 15, 4-(3,4-dihydroquinolin-1(2H)-yl)-N-{[(2S)-8-methyl-2,3-dihydro[1,4]dioxino[2,3-f]quinolin-2-yl]methyl}butan-1-amine]"
3.5,2.49,0.57,,"Cc1ccc2c3c(ccc2n1)OC[C@H](CNCCCN(C)c1ccccc1Cl)O3 [Example 13, N-(2-chlorophenyl)-N-methyl-N′-{[(2S)-8-methyl-2,3-dihydro[1,4]dioxino[2,3-f]quinolin-2-yl]methyl}propane-1,3-diamine]"
27,1.18,1.41,,"Cc1ccc2c3c(ccc2n1)OC[C@H](CNCCCN1CCCc2cc(F)cc(F)c21)O3 [Example 9, 3-(6,8-difluoro-3,4-dihydroquinolin-1(2H)-yl)-N-{[(2S)-8-methyl-2,3-dihydro[1,4]dioxino[2,3-f]quinolin-2-yl]methyl}propan-1-amine]"
7.2,1.48,1.44,76.9,"Cc1ccc2c3c(ccc2n1)OC[C@H](CNCCCN1CCCc2cc(F)ccc21)O3 [Example 8, 3-(6-fluoro-3,4-dihydroquinolin-1(2H)-yl)-N-{[(2S)-8-methyl-2,3-dihydro[1,4]dioxino[2,3-f]quinolin-2-yl]methyl}propan-1-amine]"
3.3,1.66,0.19,161,"Cc1ccc2c3c(ccc2n1)OC[C@H](CNCCCCN1CCc2ccc(F)cc21)O3 [Example 14, 4-(6-fluoro-2,3-dihydro-1H-indol-1-yl)-N-{[(2S)-8-methyl-2,3-dihydro[1,4]dioxino[2,3-f]quinolin-2-yl]methyl}butan-1-amine]"
36.2,3.06,0.79,,"Cc1ccc2c3c(ccc2n1)OC[C@H](CNCCCN1CCCCc2ccccc21)O3 [Example 12, N-{[(2S)-8-methyl-2,3-dihydro[1,4]dioxino[2,3-f]quinolin-2-yl]methyl}-3-(2,3,4,5-tetrahydro-1H-1-benzazepin-1-yl)propan-1-amine]"
116,1.95,3.22,,"Cc1ccc2c3c(ccc2n1)OC[C@H](CNCCCN1CCCc2cc(F)c(Cl)cc21)O3 [Example 10, 3-(7-chloro-6-fluoro-3,4-dihydroquinolin-1(2H)-yl)-N-{[(2S)-8-methyl-2,3-dihydro[1,4]dioxino[2,3-f]quinolin-2-yl]methyl}propan-1-amine]"
